Experimental data: patent publication US20230063794A1, “STAPLED TRIAZOLE CO-AGONISTS OF THE GLUCAGON AND GLP-1 RECEPTORS” (Merck Sharp & Dohme LLC, priority 2019, published 2023)
Starred links: 1 amine or outer side, 2 acyl side, 3 side chain; linkers in the order of their positions; H or OH if unused. Positions of bridges follow the written chain, without caps; N, C: chain ends. Non-standard residues stand in square brackets, D forms with d. Residues, ends and D or L forms follow the SMILES beside them. Groups on a side chain read outwards from the residue. Triazole bridges read from a SMILES are 1,4-linked. *: point of attachment. Lys(N3) = [N-]=[N+]=NCCCC[C@H](N)C(=O)O; γGlu = O=C(O)[C@H](CCC(=O)[*:2])N[*:1]; Met(O2) = CS(=O)(=O)CC[C@H](N)C(=O)O; Palmitoyl = CCCCCCCCCCCCCCCC(=O)*; dPra = C#CC[C@@H](N)C(=O)O; Nle = CCCC[C@H](N)C(=O)O; Aib = CC(C)(N)C(=O)O

What follows are compounds tested against T1, human GCGR (Homo sapiens, UniProt P47871) (assay: cAMP activity assay in cells expressing human GCGR). Settings: ratio of human GCGR EC50 to human GLP1R EC50.
T1 construct: expressed in transfected cells; grown under Blasticidin and Hygromycin selection
T1 sequence (P47871 26-477): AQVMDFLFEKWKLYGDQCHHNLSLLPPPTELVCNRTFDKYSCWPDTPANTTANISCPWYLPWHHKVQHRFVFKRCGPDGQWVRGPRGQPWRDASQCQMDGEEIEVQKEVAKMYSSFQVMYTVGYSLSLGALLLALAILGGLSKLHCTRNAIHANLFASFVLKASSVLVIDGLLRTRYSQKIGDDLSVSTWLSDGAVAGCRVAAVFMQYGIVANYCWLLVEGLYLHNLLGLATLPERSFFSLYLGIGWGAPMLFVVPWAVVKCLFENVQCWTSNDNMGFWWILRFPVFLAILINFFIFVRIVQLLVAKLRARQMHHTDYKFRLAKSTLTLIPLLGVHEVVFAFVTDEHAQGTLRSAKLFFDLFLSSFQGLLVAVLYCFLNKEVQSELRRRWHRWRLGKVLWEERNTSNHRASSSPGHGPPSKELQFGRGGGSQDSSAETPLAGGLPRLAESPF
Assay type: cell-based
Procedure: Activity of the peptides at the Glucagon receptor (GCGR) and GLP-1 receptor (GLP1R) was measured in a cAMP activity assay.
Peptides were dissolved in 100% DMSO and serially diluted to generate 10 point titrations. The peptide solutions were then transferred into 384-well assay plates (150 nL/well). Assay ready frozen cells expressing human GLP1R or human GCGR were suspended in growth media consisting of DMEM medium (GIBCO), 10% FBS (GIBCO), 1× NEAA(GIBCO), 1× P/S (GIBCO), 10 ug/ml Blasticidin (GIBCO) and 200 μg/mL Hygromycin (GIBCO). Cells were then diluted in assay buffer consisting of PBS (GIBCO), 7.5% BSA (Perkin Elmer), 100 μM RO 20-1724 (Sigma), with or without 20% human serum (MP Biomedical). The cell suspensions (15 μL) were then added to the assay plates containing the peptide solutions (30,000 cells/well for human GCGR; 10,000 cells/well for human GLP1R). The cells were incubated for 1 hour at room temperature in the dark. Production of cAMP was determined using HitHunter™ cAMPXS kits (DiscoverX) following manufacturer protocol. The plates were incubated for overnight at room temperature in the dark. Luminescence was measured using an EnVision Multilabel plate reader (Perkin Elmer). Native GLP-1 and Glucagon (Bachem) are used as control peptides. EC50 values were calculated using uses a 4 parameter logistic fit based on the Levenberg-Marquardt algorithm.

Compound | hGCGR/hGLP1R (hTone)
CCCCCCCCCCCCCCCC(=O)N[C@@H](CCC(=O)N[C@@H](CCC(=O)NCCCC[C@H](NC(=O)[C@H](CC(=O)O)NC(=O)[C@H](CO)NC(=O)[C@@H](NC(=O)[C@H](Cc1ccccc1)NC(=O)[C@@H](NC(=O)CNC(=O)[C@H](CCC(N)=O)NC(=O)[C@@H](CO)NC(=O)[C@@H](N)Cc1c[nH]cn1)[C@@H](C)O)[C@@H](C)O)C(=O)N[C@@H](CO)C(=O)N[C@@H](CCCCN)C(=O)N[C@@H](Cc1ccc(O)cc1)C(=O)N[C@@H](CC(C)C)C(=O)N[C@@H](CC(=O)O)C(=O)N[C@@H]1Cc2cn(nn2)CCCC[C@@H](C(=O)N[C@@H](CC(=O)O)C(=O)N[C@@H](Cc2ccccc2)C(=O)N[C@H](C(=O)N[C@@H](CCC(N)=O)C(=O)N[C@@H](Cc2c[nH]c3ccccc23)C(=O)N[C@@H](CC(C)C)C(=O)N[C@@H](CC(C)C)C(=O)N[C@@H](CC(=O)O)C(=O)N[C@H](C(N)=O)[C@@H](C)O)C(C)C)NC(=O)[C@H](C)NC(=O)[C@H](C)NC(=O)[C@H](CCCNC(=N)N)NC1=O)C(=O)O)C(=O)O [compound 12] (H-H[dS]QGTFTSDK([γGlu-γGlu-Palmitoyl])SKYLD[dPra]RAA[Lys(N3)]DFVQWLLDT-NH2; triazole 16-20) | 0.8
CCCCCCCCCCCCCCCC(=O)N[C@@H](CCC(=O)N[C@@H](CCC(=O)NCCCC[C@H](NC(=O)[C@H](CC(=O)O)NC(=O)[C@H](CO)NC(=O)[C@@H](NC(=O)[C@H](Cc1ccccc1)NC(=O)[C@@H](NC(=O)CNC(=O)[C@H](CCC(N)=O)NC(=O)[C@@H](CO)NC(=O)[C@@H](N)Cc1c[nH]cn1)[C@@H](C)O)[C@@H](C)O)C(=O)N[C@@H](CO)C(=O)N[C@@H](CCCCN)C(=O)N[C@@H](Cc1ccc(O)cc1)C(=O)N[C@@H](CC(C)C)C(=O)N[C@@H](CC(=O)O)C(=O)N[C@@H](C)C(=O)N[C@@H](CCCNC(=N)N)C(=O)N[C@@H](C)C(=O)N[C@@H](C)C(=O)N[C@@H]1Cc2cn(nn2)CCCC[C@@H](C(=O)N[C@@H](Cc2c[nH]c3ccccc23)C(=O)N[C@@H](CC(C)C)C(=O)N[C@@H](CC(C)C)C(=O)N[C@@H](CC(=O)O)C(=O)N[C@H](C(N)=O)[C@@H](C)O)NC(=O)[C@H](C(C)C)NC(=O)[C@H](Cc2ccccc2)NC(=O)[C@H](CC(=O)O)NC1=O)C(=O)O)C(=O)O [compound 13] (H-H[dS]QGTFTSDK([γGlu-γGlu-Palmitoyl])SKYLDARAA[dPra]DFV[Lys(N3)]WLLDT-NH2; triazole 20-24) | 0.4
CCCCCCCCCCCCCCCC(=O)N[C@@H](CCC(=O)N[C@@H](CCC(=O)NCCCC[C@H](NC(=O)[C@H](CC(=O)O)NC(=O)[C@H](CO)NC(=O)[C@@H](NC(=O)[C@H](Cc1ccccc1)NC(=O)[C@@H](NC(=O)CNC(=O)[C@H](CCC(N)=O)NC(=O)[C@@H](CO)NC(=O)[C@@H](N)Cc1c[nH]cn1)[C@@H](C)O)[C@@H](C)O)C(=O)N[C@@H](CO)C(=O)N[C@@H](CCCCN)C(=O)N[C@@H](Cc1ccc(O)cc1)C(=O)N[C@@H](CC(C)C)C(=O)N[C@@H](CC(=O)O)C(=O)N[C@@H](C)C(=O)N[C@@H]1Cc2cn(nn2)CCCC[C@@H](C(=O)N[C@@H](Cc2ccccc2)C(=O)N[C@H](C(=O)N[C@@H](CCC(N)=O)C(=O)N[C@@H](Cc2c[nH]c3ccccc23)C(=O)N[C@@H](CC(C)C)C(=O)N[C@@H](CC(C)C)C(=O)N[C@@H](CC(=O)O)C(=O)N[C@H](C(N)=O)[C@@H](C)O)C(C)C)NC(=O)[C@H](CCC(N)=O)NC(=O)[C@H](C)NC(=O)[C@H](C)NC1=O)C(=O)O)C(=O)O [compound 14] (H-H[dS]QGTFTSDK([γGlu-γGlu-Palmitoyl])SKYLDA[dPra]AAQ[Lys(N3)]FVQWLLDT-NH2; triazole 17-21) | 0.5
CCCCCCCCCCCCCCCC(=O)N[C@@H](CCC(=O)N[C@@H](CCC(=O)NCCCC[C@H](NC(=O)[C@H](CC(=O)O)NC(=O)[C@H](CO)NC(=O)[C@@H](NC(=O)[C@H](Cc1ccccc1)NC(=O)[C@@H](NC(=O)CNC(=O)[C@H](CCC(N)=O)NC(=O)C(C)(C)NC(=O)[C@@H](N)Cc1c[nH]cn1)[C@@H](C)O)[C@@H](C)O)C(=O)N[C@@H](CO)C(=O)N[C@@H](CCCCN)C(=O)N[C@@H](Cc1ccc(O)cc1)C(=O)N[C@@H](CC(C)C)C(=O)N[C@@H](CC(=O)O)C(=O)NC(C)(C)C(=O)N[C@@H](CCCNC(=N)N)C(=O)N[C@@H](C)C(=O)N[C@@H](C)C(=O)N[C@@H]1Cc2cn(nn2)CCCC[C@@H](C(=O)N[C@@H](Cc2c[nH]c3ccccc23)C(=O)N[C@@H](CC(C)C)C(=O)N[C@@H](CCCC)C(=O)N[C@@H](CC(=O)O)C(=O)N[C@H](C(N)=O)[C@@H](C)O)NC(=O)[C@H](C(C)C)NC(=O)[C@H](Cc2ccccc2)NC(=O)[C@H](CC(=O)O)NC1=O)C(=O)O)C(=O)O [compound 17] (H-H[Aib]QGTFTSDK([γGlu-γGlu-Palmitoyl])SKYLD[Aib]RAA[dPra]DFV[Lys(N3)]WL[Nle]DT-NH2; triazole 20-24) | 2.25

More lines, now with the values ahead:

hGCGR/hGLP1R (hTone) | Compound
0.72 | CCCCCCCCCCCCCCCC(=O)N[C@@H](CCC(=O)N[C@@H](CCC(=O)NCCCC[C@H](NC(=O)[C@H](CC(=O)O)NC(=O)[C@H](CO)NC(=O)[C@@H](NC(=O)[C@H](Cc1ccccc1)NC(=O)[C@@H](NC(=O)CNC(=O)[C@H](CCC(N)=O)NC(=O)[C@@H](CO)NC(=O)[C@@H](N)Cc1c[nH]cn1)[C@@H](C)O)[C@@H](C)O)C(=O)N[C@@H](CO)C(=O)N[C@@H](CCCCN)C(=O)N[C@@H](Cc1ccc(O)cc1)C(=O)N[C@@H](CC(C)C)C(=O)N[C@@H](CC(=O)O)C(=O)N[C@@H](C)C(=O)N[C@@H](CCCNC(=N)N)C(=O)N[C@@H](C)C(=O)N[C@@H](C)C(=O)N[C@@H](CCC(N)=O)C(=O)N[C@@H](CC(=O)O)C(=O)N[C@@H](Cc1ccccc1)C(=O)N[C@H](C(=O)N[C@@H]1Cc2cn(nn2)CCCC[C@@H](C(=O)N[C@H](C(N)=O)[C@@H](C)O)NC(=O)[C@H](CC(C)C)NC(=O)[C@H](CC(C)C)NC(=O)[C@H](Cc2c[nH]c3ccccc23)NC1=O)C(C)C)C(=O)O)C(=O)O [compound 15] (H-H[dS]QGTFTSDK([γGlu-γGlu-Palmitoyl])SKYLDARAAQDFV[dPra]WLL[Lys(N3)]T-NH2; triazole 24-28)
1.96 | CCCCCCCCCCCCCCCC(=O)N[C@@H](CCC(=O)N[C@@H](CCC(=O)NCCCC[C@H](NC(=O)[C@H](CC(=O)O)NC(=O)[C@H](CO)NC(=O)[C@@H](NC(=O)[C@H](Cc1ccccc1)NC(=O)[C@@H](NC(=O)CNC(=O)[C@H](CCC(N)=O)NC(=O)C(C)(C)NC(=O)[C@@H](N)Cc1c[nH]cn1)[C@@H](C)O)[C@@H](C)O)C(=O)N[C@@H](CO)C(=O)N[C@@H](CCCCN)C(=O)N[C@@H](Cc1ccc(O)cc1)C(=O)N[C@@H](CC(C)C)C(=O)N[C@@H](CC(=O)O)C(=O)NC(C)(C)C(=O)N[C@@H]1Cc2cn(nn2)CCCC[C@@H](C(=O)N[C@@H](Cc2ccccc2)C(=O)N[C@H](C(=O)N[C@@H](CCC(N)=O)C(=O)N[C@@H](Cc2c[nH]c3ccccc23)C(=O)N[C@@H](CC(C)C)C(=O)N[C@@H](CCCC)C(=O)N[C@@H](CC(=O)O)C(=O)N[C@H](C(N)=O)[C@@H](C)O)C(C)C)NC(=O)[C@H](CCC(N)=O)NC(=O)[C@H](C)NC(=O)[C@H](C)NC1=O)C(=O)O)C(=O)O [compound 18] (H-H[Aib]QGTFTSDK([γGlu-γGlu-Palmitoyl])SKYLD[Aib][dPra]AAQ[Lys(N3)]FVQWL[Nle]DT-NH2; triazole 17-21)
0.99 | CCCCCCCCCCCCCCCC(=O)N[C@@H](CCC(=O)N[C@@H](CCC(=O)NCCCC[C@H](NC(=O)[C@H](CC(=O)O)NC(=O)[C@H](CO)NC(=O)[C@@H](NC(=O)[C@H](Cc1ccccc1)NC(=O)[C@@H](NC(=O)CNC(=O)[C@H](CCC(N)=O)NC(=O)C(C)(C)NC(=O)[C@@H](N)Cc1c[nH]cn1)[C@@H](C)O)[C@@H](C)O)C(=O)N[C@@H](CO)C(=O)N[C@@H](CCCCN)C(=O)N[C@@H](Cc1ccc(O)cc1)C(=O)N[C@@H](CC(C)C)C(=O)N[C@@H](CC(=O)O)C(=O)NC(C)(C)C(=O)N[C@@H](CCCNC(=N)N)C(=O)N[C@@H](C)C(=O)N[C@@H](C)C(=O)N[C@@H](CCC(N)=O)C(=O)N[C@@H](CC(=O)O)C(=O)N[C@@H](Cc1ccccc1)C(=O)N[C@H](C(=O)N[C@@H]1Cc2cn(nn2)CCCC[C@@H](C(=O)N[C@H](C(N)=O)[C@@H](C)O)NC(=O)[C@H](CCCC)NC(=O)[C@H](CC(C)C)NC(=O)[C@H](Cc2c[nH]c3ccccc23)NC1=O)C(C)C)C(=O)O)C(=O)O [compound 19]
4.5 | CCCCCCCCCCCCCCCC(=O)N[C@@H](CCC(=O)N[C@@H](CCC(=O)NCCCC[C@H](NC(=O)[C@H](CC(=O)O)NC(=O)[C@H](CO)NC(=O)[C@@H](NC(=O)[C@H](Cc1ccccc1)NC(=O)[C@@H](NC(=O)CNC(=O)[C@H](CCC(N)=O)NC(=O)C(C)(C)NC(=O)[C@@H](N)Cc1c[nH]cn1)[C@@H](C)O)[C@@H](C)O)C(=O)N[C@@H](CO)C(=O)N[C@@H](CCCCN)C(=O)N[C@@H](Cc1ccc(O)cc1)C(=O)N[C@@H](CC(C)C)C(=O)N[C@@H](CC(=O)O)C(=O)NC(C)(C)C(=O)N[C@@H](CCCNC(=N)N)C(=O)N[C@@H](C)C(=O)N[C@@H](C)C(=O)N[C@@H]1Cc2cn(nn2)CCCC[C@@H](C(=O)N[C@@H](Cc2c[nH]c3ccccc23)C(=O)N[C@@H](CC(C)C)C(=O)N[C@@H](CCS(C)(=O)=O)C(=O)N[C@@H](CC(=O)O)C(=O)N[C@H](C(=O)N[C@@H](CCCCN)C(=O)N[C@@H](CCC(N)=O)C(=O)O)[C@@H](C)O)NC(=O)[C@H](C(C)C)NC(=O)[C@H](Cc2ccccc2)NC(=O)[C@H](CC(=O)O)NC1=O)C(=O)O)C(=O)O [compound 21] (H-H[Aib]QGTFTSDK([γGlu-γGlu-Palmitoyl])SKYLD[Aib]RAA[dPra]DFV[Lys(N3)]WL[Met(O2)]DTKQ-OH; triazole 20-24)
